Measurements from patent publication US20100197587A1, “USE OF A PEPTIDE AS A THERAPEUTIC AGENT” (priority 2007, published 2010).
No end group written: not given here.

What was measured:
spleen cells = assay: Th1/Th2 cytokine profiling assay (Ovalbumin-restimulated spleen cells); details: 10 micrograms per ml; Ovalbumin restimulation, 72 hours, supernatant
Text: The Balb/c mice (originated in 1923, it is a popular strain and is used in many different research disciplines. Also classified as an inbred from the production of 20 or more successive brother-sister matings, the Balb/c mouse is albino and small in size) were immunized on Days 1, 15, and 29 with Ovalbumin (Ovalbumin is the main protein found in egg white, commonly used to stimulate an immunological reaction in test animals) in PBS (5 micrograms/injection). On day 50, spleens of the mice were harvested (3 weeks after last boost with Ovalbumin). […] Thereafter, additional Ovalbumin was added to the cells at 10 micrograms/ml for in vitro restimulation of the cells. 72 hours later, cell supernatants were harvested and assayed using the Becton Dickinson Mouse Th1/Th2 Cytokine CBA Kit. This kit can be used to measure Interleukin-2 (IL-2), Interleukin-4 (IL-4), Interleukin-5 (IL-5), Interferon-γ (IFN-γ), and Tumor Necrosis Factor-α (TNF-α) protein levels in a single sample.

[1] = tested on: RAW 264.7 (Mouse leukaemic monocyte macrophage cell line) cells; assay: Phagocytosis assay (Fluorescein-labeled Escherichia coli, flow cytometry); assay type: cell-based; details: 10 micrograms per ml; RAW 264.7, Fluorescein-labeled E. coli
[2] = tested on: hepatitis B virus (HBV) ayw strain; assay: HBV assay in HepG2-2.2.15 cells (secreted HBV DNA by TaqMan PCR); assay type: cell-based; details: 10 micrograms per ml; HepG2-2.2.15, six days, HBV DNA in supernatant
HCMV strain AD169 = assay: HCMV plaque formation assay in MRC-5 cells; details: for inhibition of HCMV plaque formation as compared to the virus control experiment: 10 micrograms per ml, 7-10 days
HIV-1IIIB = assay: HIV-1 antiviral assay in CEM-SS cells (MTS readout); details: positive controls

Compound | IFNγ spleen cells; TH1 response (% of control) (spleen cells) | IL-2 spleen cells (% of control) (spleen cells) | IL-4 spleen cells; TH2 response (% of control) (spleen cells) | IL-5 spleen cells; TH2 response (% of control) (spleen cells) | TNF-a spleen cells; TH1 response (% of control) (spleen cells) | inhibition of HBV replication as compared to the virus control infection [2] [%] | inhibition of HCMV plaque formation as compared to the virus control experiment (HCMV strain AD169) | antiviral activity of positive control compounds (HIV-1) (HIV-1IIIB) | also measured
His-Ala-Asp-Gly-Ser-Phe-Ser-Asp-Glu-Met-Asn-Thr-Ile-Leu-Asp-Asn-Leu-Ala-Ala-Arg-Asp-Phe-Ile-Asn-Trp-Leu-Ile-Gln-Thr-Lys-Ile-Thr-Asp-Arg-OH (HADGSFSDEMNTILDNLAARDFINWLIQTKITDR-OH) [Peptide 1] | 132.7 % of control | 0.0 % of control | 0.0 % of control | 48.2 % of control | 102.2 % of control | 59.7 | did not inhibit |  | increase of the phagocytic activity of murine macrophages [1]: 22.9%
Cc1cn([C@H]2C[C@H](N=[N+]=[N-])[C@@H](CO)O2)c(=O)[nH]c1=O [AZT] |  |  |  |  |  |  |  | expected levels of antiviral activity | 
Nc1nc(O)c2ncn(COC(CO)CO)c2n1 [Ganciclovir, reference compound] |  |  |  |  |  |  |  |  | antiviral activity of positive control compound (HCMV) (HCMV strain AD169; positive control, HCMV AD169): expected levels of antiviral activity
His-Ala-Asp-Gly-Ser-Phe-Ser-Asp-Glu-Met-Asn-Thr-Ile-Leu-Asp-Asn-Leu-Ala-Ala-Arg-Asp-Phe-Ile-Asn-Trp-Leu-Ile-Gln-Thr-Lys-Ile-Thr-Asp-OH [Peptide 2] | 132.7 % of control | 183.3 % of control | 104.4 % of control | 108.4 % of control | 143.7 % of control | 59.2 | 18.8% |  | inhibitory effects on the phagocytic activity of murine macrophages [1]: no inhibitory effects
CC(C)(C)NC(=O)[C@@H]1CN(Cc2cccnc2)CCN1C[C@@H](O)C[C@@H](Cc1ccccc1)C(=O)N[C@H]1c2ccccc2C[C@H]1O [indinavir] |  |  |  |  |  |  |  | expected levels of antiviral activity | 
